Experimental data as given in PubChem BioAssay (NCI).
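Cultured in 96-well plates, cells were exposed to test compound for 48 hours across five concentrations. At the TGI there is no net growth.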

Assays:
Experiment in all cases: NCI tumour cell line growth inhibition, 48 h
[1] = test system: 786-0 renal
[2] = test system: A498 renal
[3] = test system: A549 NSCLC
[4] = test system: ACHN renal
[5] = test system: CCRF-CEM leukemia
[6] = test system: COLO 205 colon
[7] = test system: DLD-1 colon
[8] = test system: DMS 114 small cell lung
[9] = test system: EKVX NSCLC
[10] = test system: HCC-2998 colon
[11] = test system: HCT-116 colon
[12] = test system: HCT-15 colon
[13] = test system: HL-60(TB) leukemia
[14] = test system: HOP-18 NSCLC
[15] = test system: HOP-92 NSCLC
[16] = test system: HT29 colon
[17] = test system: IGROV1 ovarian
[18] = test system: K-562 leukemia
[19] = test system: KM12 colon
[20] = test system: KM20L2 colon
[21] = test system: LOX IMVI melanoma
[22] = test system: LXFL 529 NSCLC
[23] = test system: M14 melanoma
[24] = test system: M19-MEL melanoma
[25] = test system: MALME-3M melanoma
[26] = test system: MOLT-4 leukemia
[27] = test system: NCI-H23 lung
[28] = test system: NCI-H460 lung
[29] = test system: NCI-H522 lung
[30] = test system: OVCAR-3 ovarian
[31] = test system: OVCAR-5 ovarian
[32] = test system: OVCAR-8 ovarian
[33] = test system: RPMI-8226 leukemia
[34] = test system: RXF 393 renal
[35] = test system: RXF-631 renal
[36] = test system: SF-268 CNS
[37] = test system: SF-295 CNS
[38] = test system: SF-539 CNS
[39] = test system: SK-MEL-2 melanoma
[40] = test system: SK-MEL-28 melanoma
[41] = test system: SK-MEL-5 melanoma
[42] = test system: SK-OV-3 ovarian
[43] = test system: SN12C renal
[44] = test system: SNB-19 CNS
[45] = test system: SNB-75 CNS
[46] = test system: SNB-78 CNS
[47] = test system: SR leukemia
[48] = test system: SW-620 colon
[49] = test system: TK-10 renal
[50] = test system: U251 CNS
[51] = test system: UACC-257 melanoma
[52] = test system: UACC-62 melanoma
[53] = test system: UO-31 renal
[54] = test system: XF 498 CNS

COCOCCCCCO[Si](C)(C)C(C)(C)C
TGI [1]: 29 µM | TGI [2]: 77.8 µM | TGI [3]: 50 µM | TGI [4]: 27.7 µM | TGI [5]: 58.1 µM | TGI [6]: 38.5 µM | TGI [7]: > 100 µM | TGI [8]: 35.9 µM | TGI [9]: 46.8 µM | TGI [10]: 31.9 µM | TGI [11]: 26.4 µM | TGI [12]: 32.1 µM | TGI [13]: 30.9 µM | TGI [14]: 65.3 µM | TGI [15]: 36.9 µM | TGI [16]: 30.8 µM | TGI [17]: 69.7 µM | TGI [18]: 54.9 µM | TGI [19]: 63.2 µM | TGI [20]: 75.8 µM | TGI [21]: 31.2 µM | TGI [22]: > 100 µM | TGI [23]: 48.7 µM | TGI [24]: 70 µM | TGI [25]: 47.9 µM | TGI [26]: 36.9 µM | TGI [27]: 42.7 µM | TGI [28]: 43.4 µM | TGI [29]: 28.6 µM | TGI [30]: 27.6 µM | TGI [31]: 44.9 µM | TGI [32]: 41.2 µM | TGI [33]: 51.9 µM | TGI [34]: 31.9 µM | TGI [35]: 52.8 µM | TGI [36]: 27.9 µM | TGI [37]: 30.1 µM | TGI [38]: 40.8 µM | TGI [39]: 31 µM | TGI [40]: > 100 µM | TGI [41]: 30.3 µM | TGI [42]: > 100 µM | TGI [43]: 32 µM | TGI [44]: 30.6 µM | TGI [45]: 83.8 µM | TGI [46]: 48.3 µM | TGI [47]: 49.6 µM | TGI [48]: 33.5 µM | TGI [49]: 97.6 µM | TGI [50]: 29.4 µM | TGI [51]: 40.2 µM | TGI [52]: 64.6 µM | TGI [53]: 42.8 µM | TGI [54]: 31.6 µM
